Patent US9718817B2, “Aryl and heteroaryl ether compounds as ROR gamma modulators” (Glenmark Pharmaceuticals S.A., priority 2014, dated 2017)

Target: T1, GST-tagged ROR gamma ligand binding domain (LBD) (Homo sapiens, UniProt P51449)
T1 construct: purchased Invitrogen
T1 sequence (P51449 269-508 limits assumed): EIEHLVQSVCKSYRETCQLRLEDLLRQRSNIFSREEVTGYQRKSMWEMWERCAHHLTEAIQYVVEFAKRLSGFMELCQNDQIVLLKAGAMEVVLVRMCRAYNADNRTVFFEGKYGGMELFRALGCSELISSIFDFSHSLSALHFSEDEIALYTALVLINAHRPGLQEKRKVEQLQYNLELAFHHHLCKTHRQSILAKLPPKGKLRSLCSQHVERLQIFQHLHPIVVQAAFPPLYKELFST
Assay: TR-FRET assay for ROR gamma (LanthaScreen co-activator peptide recruitment)
Type: biochemical
Settings: for IC50: class symbols, from dose response curve; for inhibition at 1 µM: compound 1 μM; for inhibition at 1 µM / inhibition at 10 µM: TR-FRET ratio 520/495, percent of control; for inhibition at 10 µM: compound 10 μM
Outline: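 Antagonist mode: 10 nM GST-RORγ LBD pre-incubated with compound 1 h at 22 °C in 25 mM HEPES pH 7.4, 100 mM NaCl, 5 mM DTT, 0.01% BSA, 4% DMSO final. Then 300 nM fluorescein-D22 co-activator peptide plus 10 nM Tb-anti-GST added, 1 h at room temperature. IC50 by nonlinear regression of the 520/495 TR-FRET ratio as percent of no-compound control.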

SMILES | IC50 [nM] | inhibition at 1 µM [%] | inhibition at 10 µM [%]
CCn1c(C(C)(C)Oc2ccc(Cl)cn2)nc2cc(NC(=O)Cc3ccc(S(=O)(=O)CC)cc3)ccc21 [Example 94, N-{2-[1-(5-Chloro-pyridin-2-yloxy)-1-methyl-ethyl]-1-ethyl-1H-benzoimidazol-5-yl}-2-(4-ethanesulfonyl-phenyl)-acetamide] | > 100 | 78 | 90.1
CCS(=O)(=O)c1ccc(CC(=O)Nc2ccc(OC(C)(C)c3ncc(Cl)cc3Cl)c(F)c2)cc1 [Example 95, N-{4-[1-(3,5-Dichloro-pyridin-2-yl)-1-methyl-ethoxy]-3-fluoro-phenyl}-2-(4-ethanesulfonyl-phenyl)-acetamide] | < 50 | 75.7 | 77.6
CCS(=O)(=O)c1ccc(CC(=O)Nc2ccc(OC(C)(C)c3ccc(Cl)cc3Cl)c(F)c2)cc1 [Example 96, N-{4-[1-(2,4-Dichloro-phenyl)-1-methyl-ethoxy]-3-fluoro-phenyl}-2-(4-ethanesulfonyl-phenyl)-acetamide] | < 50 | 79.3 | 79.8
CCS(=O)(=O)c1ccc(CC(=O)Nc2ccc(OC(C)(C)c3ccc(F)cc3Cl)c(F)c2)cc1 [Example 97, N-{4-[1-(2-Chloro-4-fluoro-phenyl)-1-methyl-ethoxy]-3-fluoro-phenyl}-2-(4-ethanesulfonyl-phenyl)-acetamide] | < 50 | 80.8 | 82.1
CCS(=O)(=O)c1ccc(CC(=O)Nc2ccc(OC(C)(C)c3ccc(Cl)cc3F)c(F)c2)cc1 [Example 98, N-{4-[1-(4-Chloro-2-fluoro-phenyl)-1-methyl-ethoxy]-3-fluoro-phenyl}-2-(4-ethanesulfonyl-phenyl)-acetamide] | – | 55 | 49.6
CCS(=O)(=O)c1ccc(CC(=O)Nc2ccc(OC3(c4ccc(Cl)cc4F)CC3)c(F)c2)cc1 [Example 99, N-{4-[1-(4-Chloro-2-fluoro-phenyl)-cyclopropoxy]-3-fluoro-phenyl}-2-(4-ethanesulfonyl-phenyl)-acetamide] | < 50 | 81.7 | 81.1
CCS(=O)(=O)c1ccc(CC(=O)Nc2ccc(OC3(c4ccc(Cl)c(F)c4)CC3)c(F)c2)cc1 [Example 100, N-{4-[1-(4-Chloro-3-fluoro-phenyl)-cyclopropoxy]-3-fluoro-phenyl}-2-(4-ethanesulfonyl-phenyl)-acetamide] | < 50 | 79.4 | 87.2
CCS(=O)(=O)c1ccc(CC(=O)Nc2ccc(OC3(c4ccc(Cl)cc4Cl)COC3)c(F)c2)cc1 [Example 101, N-{4-[3-(2,4-Dichloro-phenyl)-oxetan-3-yloxy]-3-fluoro-phenyl}-2-(4-ethanesulfonyl-phenyl)-acetamide] | < 50 | 86.6 | 82.3
CCS(=O)(=O)c1ccc(CC(=O)Nc2ccc(OC3(c4ccc(Cl)c(F)c4)COC3)c(F)c2)cc1 [Example 102, N-{4-[3-(4-Chloro-3-fluoro-phenyl)-oxetan-3-yloxy]-3-fluoro-phenyl}-2-(4-ethanesulfonyl-phenyl)-acetamide] | < 50 | 81.7 | 84
CCS(=O)(=O)c1ccc(CC(=O)Nc2ccc(OC3(c4ccc(Cl)c(F)c4)CCOCC3)c(F)c2)cc1 [Example 103, N-{4-[4-(4-Chloro-3-fluoro-phenyl)-tetrahydro-pyran-4-yloxy]-3-fluoro-phenyl}-2-(4-ethanesulfonyl-phenyl)-acetamide] | < 50 | 73.6 | 80.2
CCS(=O)(=O)c1ccc(CC(=O)Nc2ccc(OC(C)(C)Cn3ccc4cc(Cl)ccc43)c(F)c2)cc1 [Example 104, N-{4-[2-(5-Chloro-indol-1-yl)-1,1-dimethyl-ethoxy]-3-fluoro-phenyl}-2-(4-ethanesulfonyl-phenyl)-acetamide] | 50 to 100 | 74.5 | 79.2
CCn1c(C(C)(C)Oc2ccc(NC(=O)Cc3ccc(S(=O)(=O)CC)cc3)cc2F)nc2cc(Cl)ccc21 [Example 105, N-{4-[1-(5-Chloro-1-ethyl-1H-benzoimidazol-2-yl)-1-methyl-ethoxy]-3-fluoro-phenyl}-2-(4-ethanesulfonyl-phenyl)-acetamide] | < 50 | 83.6 | 84.6
CCS(=O)(=O)c1ccc(CC(=O)Nc2ccc(C#CC(C)(C)Oc3ccc(Cl)c(F)c3)c(F)c2)cc1 [Example 106, N-{4-[3-(4-Chloro-3-fluoro-phenoxy)-3-methyl-but-1-ynyl]-3-fluoro-phenyl}-2-(4-ethanesulfonyl-phenyl)-acetamide] | < 50 | 81.9 | 85.9
CCS(=O)(=O)c1ccc(CC(=O)Nc2ccc(OC(C)(C)c3ccc(F)cc3F)c(F)c2)cc1 [Example 107, N-{4-[1-(2,4-Difluoro-phenyl)-1-methyl-ethoxy]-3-fluoro-phenyl}-2-(4-ethanesulfonyl-phenyl)-acetamide] | – | 59 | 59.5
CCS(=O)(=O)c1ccc(CC(=O)Nc2ccc(OC(C)(C)Cn3c(C)cc4cc(F)ccc43)c(F)c2)cc1 [Example 108, 2-(4-Ethanesulfonyl-phenyl)-N-{3-fluoro-4-[2-(5-fluoro-2-methyl-indol-1-yl)-1,1-dimethyl-ethoxy]-phenyl}-acetamide] | – | 9.67 | 61.4
CCS(=O)(=O)c1ccc(CC(=O)Nc2cc(F)c(OC(C)(C)c3ccc(Cl)cc3Cl)c(F)c2)cc1 [Example 109, N-{4-[1-(2,4-Dichloro-phenyl)-1-methyl-ethoxy]-3,5-difluoro-phenyl}-2-(4-ethanesulfonyl-phenyl)-acetamide] | – | 16.6 | 17.2
CCS(=O)(=O)c1ccc(CC(=O)Nc2cc(F)c(OC(C)(C)c3ncc(Cl)cc3Cl)c(F)c2)cc1 [Example 110, N-{4-[1-(3,5-Dichloro-pyridin-2-yl)-1-methyl-ethoxy]-3,5-difluoro-phenyl}-2-(4-ethanesulfonyl-phenyl)-acetamide] | – | 23.7 | 47.6
CCn1c(C(C)(C)Oc2ccc(NC(=O)Cc3ccc(S(=O)(=O)CC)cc3)cc2F)nc2cc(F)ccc21 [Example 111, 2-(4-Ethanesulfonyl-phenyl)-N-{4-[1-(1-ethyl-5-fluoro-1H-benzoimidazol-2-yl)-1-methyl-ethoxy]-3-fluoro-phenyl}-acetamide] | < 50 | 88 | 86.8
CCS(=O)(=O)c1ccc(CC(=O)Nc2ccc3c(c2)nc(C(C)(C)Oc2ccc(F)cc2F)n3CCN(C)C)cc1 [Example 113, N-[2-[1-(2,4-Difluoro-phenoxy)-1-methyl-ethyl]-1-(2-dimethylamino-ethyl)-1H-benzoimidazol-5-yl]-2-(4-ethanesulfonyl-phenyl)-acetamide] | – | 15.6 | 52.4
CCS(=O)(=O)c1ccc(CC(=O)Nc2ccc3c(c2)nc(C(C)(C)Oc2ccc(F)cc2F)n3CC2CC2)cc1 [Example 114, N-{1-Cyclopropylmethyl-2-[1-(2,4-difluoro-phenoxy)-1-methyl-ethyl]-1H-benzoimidazol-5-yl}-2-(4-ethanesulfonyl-phenyl)-acetamide] | < 50 | 78.9 | 82.6
CCCn1c(C(C)(C)Oc2ccc(F)cc2F)nc2cc(NC(=O)Cc3ccc(S(=O)(=O)CC)cc3)ccc21 [Example 115, N-{2-[1-(2,4-Difluoro-phenoxy)-1-methyl-ethyl]-1-propyl-1H-benzoimidazol-5-yl}-2-(4-ethanesulfonyl-phenyl)-acetamide] | < 50 | 82.4 | 88.3
CCS(=O)(=O)c1ccc(CC(=O)Nc2ccc3c(c2)nc(C(C)(C)Oc2ccc(F)cc2F)n3CC(C)C)cc1 [Example 116, N-{2-[1-(2,4-Difluoro-phenoxy)-1-methyl-ethyl]-1-isobutyl-1H-benzoimidazol-5-yl}-2-(4-ethanesulfonyl-phenyl)-acetamide] | > 100 | 79.1 | 84.5
CCS(=O)(=O)c1ccc(CC(=O)Nc2ccc3c(c2)nc(C(C)(C)Oc2ccc(F)cc2F)n3C(C)C)cc1 [Example 117, N-{2-[1-(2,4-Difluoro-phenoxy)-1-methyl-ethyl]-1-isopropyl-1H-benzoimidazol-5-yl}-2-(4-ethanesulfonyl-phenyl)-acetamide] | > 100 | 82.7 | 86.7
CCn1c(C(F)(F)Oc2ccc(F)cc2F)nc2cc(NC(=O)Cc3ccc(S(=O)(=O)CC)cc3)ccc21 [Example 118, N-{2-[(2,4-Difluoro-phenoxy)-difluoromethyl]-1-ethyl-1H-benzoimidazol-5-yl}-2-(4-ethanesulfonyl-phenyl)-acetamide] | – | 5.43 | 9.14
CCS(=O)(=O)c1ccc(CC(=O)Nc2ccc(OC3(c4ccc(Cl)c(F)c4)CCC3)c(F)c2)cc1 [Example 119, N-{4-[1-(4-Chloro-3-fluorophenyl)-cyclobutoxy]-3-fluoro-phenyl}-2-(4-ethanesulfonyl-phenyl)-acetamide] | < 50 | 84.9 | 84.5
